Among the data in US20210188843A1, “QUINOLINE COMPOUNDS AND THEIR PREPARATION AND USE AS ANTIMALARIAL AGENTS” (The United States of America,as represented by the …, priority 2018, published 2021) are EC50, half-life and solubility values, retold here.

Data set [1] has as its system Asexual parasites of P. falciparum strain 3D7. Kind of data set: In vitro drug activity on asexual parasites (SYBR Green assay). Format: cell-based. Conditions: Plasmodium falciparum; Table 1; P. falciparum 3D7 asexual stage, 72 h; read-out: Asexual EC50. The gist of the method: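 3D7 asexual cultures at 0.5% parasitemia and 2% hematocrit were exposed to drug (DMSO <0.5%) for 72 h under standard culture conditions, in duplicate with no-drug and RBC-only controls. After freeze-thaw lysis, SYBR Green I lysis buffer was added for 30 min at room temperature; fluorescence was read at 490 nm excitation/520 nm emission.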

Data set [2] is described as follows: Microsomal stability (rat). Conditions: rat microsomes, Table 1, read-out: Microsomal Stability (rat) T1/2. Format: in vitro ADME.
The nature of a further data set: Solubility pH 7.4. Format: physicochemical. Conditions: aqueous buffer, Table 1.

Usually EC50 stands for the concentration that produces a half-maximal response. Broadly, the solubility is the concentration that dissolves in the medium under given conditions. A low value points to a poorly soluble substance.

Values after ≈ are worked out from the molar mass of the structure shown.

Consider `Cc1ccc(C#N)cc1-n1c(=N)n(Cc2ccccc2)c2cnc3ccc(-c4ccc(Cl)cc4)cc3c21` [Compound 94, 3-(3-benzyl-8-(4-chlorophenyl)-2-imino-2,3-dihydro-1H-imidazo[4,5-c]quinolin-1-yl)-4-methylbenzonitrile], for which the EC50 in data set [1] amounted to 9170 nM. Moreover, in data set [2], the half-life is above 30 min. The compound further showed a solubility in “Solubility pH 7.4” below 1 µg/mL.

For `Cc1ccc(C#N)cc1-n1c(=N)n(CCO)c2cnc3ccc(-c4ccc(Cl)cc4)cc3c21` [Compound 95, 3-(8-(4-chlorophenyl)-3-(2-hydroxyethyl)-2-imino-2,3-dihydro-1H-imidazo[4,5-c]quinolin-1-yl)-4-methylbenzonitrile], in data set [1], the EC50 stood at 2580 nM. Besides, the half-life in data set [2] is above 30 min. In addition, the solubility in the data set “Solubility pH 7.4” turned out to be 27.4 µg/mL (≈ 60.4 µM).

For `Cn1c(=N)n([C@H]2CC[C@H](N3CCNCC3)CC2)c2c3cc(-c4ccc(Cl)cc4)ccc3ncc21` [Compound 96, 8-(4-chlorophenyl)-3-methyl-1-((1r,4r)-4-(piperazin-1-yl)cyclohexyl)-1,3-dihydro-2H-imidazo[4,5-c]quinolin-2-imine], the EC50 in data set [1] is 2630 nM. In data set [2], the half-life is above 30 min. The compound also returned a solubility in the data set “Solubility pH 7.4” above 47 µg/mL.

As for `Cn1c(=N)n(C2CCN(C3CCNCC3)CC2)c2c3cc(-c4ccc(Cl)cc4)ccc3ncc21` [Compound 97, 1-([1,4′-bipiperidin]-4-yl)-8-(4-chlorophenyl)-3-methyl-1,3-dihydro-2H-imidazo[4,5-c]quinolin-2-imine], the EC50 in data set [1] was 5100 nM. For the same compound, in data set [2], the half-life is above 30 min. Further, the solubility in “Solubility pH 7.4” is above 47 µg/mL.

`Cn1c(=N)n(C2CC(N3CCNCC3)C2)c2c3cc(-c4ccc(Cl)cc4)ccc3ncc21` (stereo not drawn) [Compound 98, 8-(4-chlorophenyl)-3-methyl-1-(3-(piperazin-1-yl)cyclobutyl)-1,3-dihydro-2H-imidazo[4,5-c]quinolin-2-imine]: in data set [1], the EC50 came to 2550 nM. The half-life in data set [2] was above 30 min. Besides, in “Solubility pH 7.4”, the solubility is above 44 µg/mL.

For `Cc1cccc(C)c1-n1c(=N)n(C)c2cnc3ccc(-c4ccc(Cl)cc4)cc3c21` [Compound 99, 8-(4-chlorophenyl)-1-(2,6-dimethylphenyl)-3-methyl-1,3-dihydro-2H-imidazo[4,5-c]quinolin-2-imine], the EC50 in data set [1] was 3180 nM. The half-life in data set [2] is above 30 min. The solubility in the data set “Solubility pH 7.4” is above 41 µg/mL.

`Cc1ccc(C#N)cc1-n1/c(=N/S(N)(=O)=O)n(C)c2cnc3ccc(-c4ccc(N)nc4)cc3c21` [Compound 101, (8-(6-aminopyridin-3-yl)-1-(5-cyano-2-methylphenyl)-3-methyl-1,3-dihydro-2H-imidazo[4,5-c]quinolin-2-ylidene)sulfonamide]: the concentration for a half-maximal effect (EC50) in data set [1] was found to be 3.07 nM. In data set [2], the half-life was above 30 min. In the data set “Solubility pH 7.4”, the solubility was 2.2 µg/mL (≈ 4.54 µM).

For the compound `Cn1c(=N)n(C2CCCCC2)c2c3cc(-c4ccc(Cl)cc4)ccc3ncc21` [Compound 102, 8-(4-chlorophenyl)-1-cyclohexyl-3-methyl-1,3-dihydro-2H-imidazo[4,5-c]quinolin-2-imine], in data set [1], the EC50 amounted to 4780 nM. Also, the half-life in data set [2] was above 30 min. The same compound yielded a solubility in the data set “Solubility pH 7.4” of 22.3 µg/mL (≈ 57 µM).

`COc1ccc(-c2ccc3ncc4c(c3c2)n(-c2cc(C#N)ccc2C)c(=N)n4C)cn1` [Compound 103, 3-(2-imino-8-(6-methoxypyridin-3-yl)-3-methyl-2,3-dihydro-1H-imidazo[4,5-c]quinolin-1-yl)-4-methylbenzonitrile]: the EC50 in data set [1] was 163 nM. Also, the half-life in data set [2] was above 30 min. Further, in “Solubility pH 7.4”, the solubility is above 42 µg/mL.

Take `CCC(=O)N1CCC(n2c(=N)n(C)c3cnc4ccc(-c5ccc(Cl)cc5)cc4c32)CC1` [Compound 104, 1-(4-(8-(4-chlorophenyl)-2-imino-3-methyl-2,3-dihydro-1H-imidazo[4,5-c]quinolin-1-yl)piperidin-1-yl)propan-1-one]: the EC50 in data set [1] is 411 nM. In data set [2], the half-life is above 30 min. The compound also displayed a solubility in “Solubility pH 7.4” above 44 µg/mL.

With `Cc1cc(NCCN(C)C)c(C#N)cc1-n1c(=N)n(C)c2cnc3ccc(-c4ccc(Cl)cc4)cc3c21` [Compound 113, 5-(8-(4-chlorophenyl)-2-imino-3-methyl-2,3-dihydro-1H-imidazo[4,5-c]quinolin-1-yl)-2-((2-(dimethylamino)ethyl)amino)-4-methylbenzonitrile], the EC50 in data set [1] stood at 546 nM. Also, in data set [2], the half-life is above 30 min. For the same compound, the solubility in “Solubility pH 7.4” was above 50 µg/mL.

For the compound `Cc1cc(N2CCC(O)CC2)c(C#N)cc1-n1c(=N)n(C)c2cnc3ccc(-c4ccc(Cl)cc4)cc3c21` [Compound 114, 5-(8-(4-chlorophenyl)-2-imino-3-methyl-2,3-dihydro-1H-imidazo[4,5-c]quinolin-1-yl)-2-(4-hydroxypiperidin-1-yl)-4-methylbenzonitrile], in data set [1], the EC50 is 55.2 nM. The half-life in data set [2] is above 30 min. Moreover, the solubility in the data set “Solubility pH 7.4” is below 1 µg/mL.

For `Cc1cc(N2CCN(CCO)CC2)c(C#N)cc1-n1c(=N)n(C)c2cnc3ccc(-c4ccc(Cl)cc4)cc3c21` [Compound 115, 5-(8-(4-chlorophenyl)-2-imino-3-methyl-2,3-dihydro-1H-imidazo[4,5-c]quinolin-1-yl)-2-(4-(2-hydroxyethyl)piperazin-1-yl)-4-methylbenzonitrile], the EC50 in data set [1] stood at 125 nM. Also, in data set [2], the half-life was above 30 min. Besides, the solubility in “Solubility pH 7.4” was above 55 µg/mL.

`Cc1cc(N2CC(C)OC(C)C2)c(C#N)cc1-n1c(=N)n(C)c2cnc3ccc(-c4ccc(Cl)cc4)cc3c21` (stereo not drawn) [Compound 117, 5-(8-(4-chlorophenyl)-2-imino-3-methyl-2,3-dihydro-1H-imidazo[4,5-c]quinolin-1-yl)-2-(2,6-dimethylmorpholino)-4-methylbenzonitrile]: the concentration for a half-maximal effect (EC50) in data set [1] came to 373 nM. Moreover, in data set [2], the half-life is above 30 min. This compound also yielded a solubility in “Solubility pH 7.4” below 1 µg/mL.

With `Cc1cc(N2CCN(S(C)(=O)=O)CC2)c(C#N)cc1-n1c(=N)n(C)c2cnc3ccc(-c4ccc(Cl)cc4)cc3c21` [Compound 118, 5-(8-(4-chlorophenyl)-2-imino-3-methyl-2,3-dihydro-1H-imidazo[4,5-c]quinolin-1-yl)-4-methyl-2-(4-(methylsulfonyl)piperazin-1-yl)benzonitrile], the EC50 in data set [1] came out at 135 nM. In addition, the half-life in data set [2] is above 30 min. In the data set “Solubility pH 7.4”, the solubility was below 1 µg/mL.

On to `Cc1ccc(S(C)(=O)=O)cc1-n1c(=N)n(C)c2cnc3ccc(-c4ccc(Cl)cc4)cc3c21` [Compound 122, 8-(4-chlorophenyl)-3-methyl-1-(2-methyl-5-(methylsulfonyl)phenyl)-1,3-dihydro-2H-imidazo[4,5-c]quinolin-2-imine], for which the EC50 in data set [1] was determined as 1610 nM. In addition, the half-life in data set [2] was above 30 min. In the data set “Solubility pH 7.4”, this compound yielded a solubility above 47 µg/mL.

Consider `Cc1cc(NS(C)(=O)=O)c(C#N)cc1-n1c(=N)n(C)c2cnc3ccc(-c4ccc(Cl)cc4)cc3c21` [Compound 123, N-(4-(8-(4-chlorophenyl)-2-imino-3-methyl-2,3-dihydro-1H-imidazo[4,5-c]quinolin-1-yl)-2-cyano-5-methylphenyl)methanesulfonamide], for which, in data set [1], the EC50 is 88.6 nM. Moreover, the half-life in data set [2] was above 30 min. The solubility in the data set “Solubility pH 7.4” was below 1 µg/mL.

With `Cc1cc(N2CCNC(C)C2)c(C#N)cc1-n1c(=N)n(C)c2cnc3ccc(-c4ccc(Cl)cc4)cc3c21` (stereo not drawn) [Compound 124, 5-(8-(4-chlorophenyl)-2-imino-3-methyl-2,3-dihydro-1H-imidazo[4,5-c]quinolin-1-yl)-4-methyl-2-(3-methylpiperazin-1-yl)benzonitrile], the EC50 in data set [1] amounted to 217 nM. Also, in data set [2], the half-life is above 30 min. Also, the solubility in the data set “Solubility pH 7.4” is 1.9 µg/mL (≈ 3.64 µM).

On to `Cc1cc(N2CCN(C(N)=O)CC2)c(C#N)cc1-n1c(=N)n(C)c2cnc3ccc(-c4ccc(Cl)cc4)cc3c21` [Compound 126, 4-(4-(8-(4-chlorophenyl)-2-imino-3-methyl-2,3-dihydro-1H-imidazo[4,5-c]quinolin-1-yl)-2-cyano-5-methylphenyl)piperazine-1-carboxamide], for which, in data set [1], the EC50 amounted to 14.5 nM. In data set [2], the half-life is above 30 min. For the same compound, the solubility in the data set “Solubility pH 7.4” was 2.2 µg/mL (≈ 3.99 µM).

As for `Cc1nc(N2CCOCC2)c(C#N)cc1-n1c(=N)n(C)c2cnc3ccc(-c4cccc(F)c4)cc3c21` [Compound 142, 5-(8-(3-fluorophenyl)-2-imino-3-methyl-2,3-dihydro-1H-imidazo[4,5-c]quinolin-1-yl)-6-methyl-2-morpholinonicotinonitrile], the EC50 in data set [1] was 225 nM. The half-life in data set [2] is above 30 min. Also, the solubility in the data set “Solubility pH 7.4” was above 49 µg/mL.

With `Cc1cc(N2CCN(C)CC2)c(C#N)cc1-n1c(=N)n(C)c2cnc3ccc(-c4cccc(F)c4)cc3c21` [Compound 144, 5-(8-(3-fluorophenyl)-2-imino-3-methyl-2,3-dihydro-1H-imidazo[4,5-c]quinolin-1-yl)-4-methyl-2-(4-methylpiperazin-1-yl)benzonitrile], the EC50 in data set [1] came out at 159 nM. For the same compound, the half-life in data set [2] was above 30 min. In addition, in “Solubility pH 7.4”, the solubility was above 50 µg/mL.

Regarding `COC(=O)/N=c1\n(C)c2cnc3ccc(-c4cccc(F)c4)cc3c2n1-c1cc(C#N)c(N2CCN(C)CC2)cc1C` [Compound 146, Methyl (E)-(1-(5-cyano-2-methyl-4-(4-methylpiperazin-1-yl)phenyl)-8-(3-fluorophenyl)-3-methyl-1,3-dihydro-2H-imidazo[4,5-c]quinolin-2-ylidene)carbamate], the EC50 in data set [1] was determined as 62.7 nM. For the same compound, the half-life in data set [2] was 21.2 min. In “Solubility pH 7.4”, the solubility amounted to 14.5 µg/mL (≈ 25.7 µM).

Take `Cc1ccc(C#N)cc1-n1c(=N)n(C)c2cnc3ccc(C#Cc4ccccc4)cc3c21` [Compound 154, 3-(2-imino-3-methyl-8-(phenylethynyl)-2,3-dihydro-H-imidazo[4,5-c]quinolin-1-yl)-4-methylbenzonitrile]: the EC50 in data set [1] worked out at 1750 nM. The half-life in data set [2] is above 30 min. Also, the solubility in “Solubility pH 7.4” was 1.4 µg/mL (≈ 3.39 µM).
